Data as given in ChEMBL document CHEMBL1764994, “QSAR-based permeability model for drug-like compounds” (Bioorg Med Chem, 2011).

system: Caco-2; conditions: human, Caco-2, 2 h
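Throughout, for permeability: apparent permeability through Caco-2 cell membranes, with the permeated amount quantified by LC-MS/MS.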

Question: How did the logPapp turn out when CCCc1nc2c(C)cc(-c3nc4ccccc4n3C)cc2n1Cc1ccc(-c2ccccc2C(=O)O)cc1 was run?
Answer: -4.82

Question: With Cc1ccc(/C(=C\CN2CCCC2)c2cccc(/C=C/C(=O)O)n2)cc1 [ACRIVASTINE] as the compound, how does the logPapp read?
Answer: -5.72

Question: For CC1(C)S[C@@H]2[C@H](NC(=O)[C@H](N)c3ccc(O)cc3)C(=O)N2[C@H]1C(=O)O [AMOXICILLIN], which permeability is on record?
Answer: permeable

Question: How did the permeability turn out when Cc1cc(=O)n(-c2ccccc2)n1C [ANTIPYRINE] was run?
Answer: permeable

Question: What does the source list for NC(=O)N1c2ccccc2C=Cc2ccccc21 [CARBAMAZEPINE]?
Answer: logPapp: -5.3; permeability: permeable

Question: How did the logPapp turn out when CN/C(=N/CCSCc1nc[nH]c1C)NC#N [CIMETIDINE] was run?
Answer: -5.88

Question: Which logPapp does the source give for Clc1cccc(Cl)c1N=C1NCCN1 [CLONIDINE] here?
Answer: -4.66

Question: How did the logPapp turn out when NCCc1ccc(O)c(O)c1 [DOPAMINE] was run?
Answer: -5.03

Question: With CNC[C@H](O)c1ccc(O)c(O)c1 [EPINEPHRINE] as the compound, how does the logPapp read?
Answer: -6.02

Question: Which permeability does the source give for CC(C)n1c(/C=C/C(O)CC(O)CC(=O)O)c(-c2ccc(F)cc2)c2ccccc21 (centres undefined) [FLUVASTATIN] here?
Answer: permeable

Question: CC(C(=O)O)c1cccc(C(=O)c2ccccc2)c1 (centres undefined) [KETOPROFEN] was tested. Which permeability did it give?
Answer: permeable

Question: For OC[C@@H](O)[C@@H](O)[C@H](O)[C@H](O)CO [MANNITOL], which permeability is on record?
Answer: permeable

Question: For C[C@](N)(Cc1ccc(O)c(O)c1)C(=O)O [METHYLDOPA], which permeability is on record?
Answer: permeable

Question: For COCCc1ccc(OCC(O)CNC(C)C)cc1 (centres undefined) [METOPROLOL], which permeability is on record?
Answer: permeable

Question: With CC#Cc1cn([C@@H]2O[C@H](CO)[C@@H](O)[C@@H]2O)c(=O)[nH]c1=O [NETIVUDINE] as the compound, how does the logPapp read?
Answer: -6.17

Question: Which logPapp does the source give for CN1CCC[C@H]1c1cccnc1 [NICOTINE] here?
Answer: -4.58

Question: How did the logPapp turn out when C=CCOc1ccccc1OCC(O)CNC(C)C (centres undefined) [OXPRENOLOL] was run?
Answer: -4.21

Question: How did the logPapp turn out when CC1(C)S[C@@H]2[C@H](NC(=O)Cc3ccccc3)C(=O)N2[C@H]1C(=O)O [PENICILLIN G] was run?
Answer: -6.11

Question: With c1ccc(C2(N3CCCCC3)CCCCC2)cc1 [PHENCYCLIDINE] as the compound, how does the logPapp read?
Answer: -4.61

Question: Which logPapp does the source give for CC(C)NCC(O)COc1cccc2[nH]ccc12 (centres undefined) [PINDOLOL] here?
Answer: -4.41

Question: CC(C(=O)O)c1ccc2c(c1)Cc1cccnc1O2 (centres undefined) [PRANOPROFEN] was tested. Which logPapp did it give?
Answer: -4.39

Question: Which logPapp does the source give for CC(=O)[C@H]1CC[C@H]2[C@@H]3CCC4=CC(=O)CC[C@]4(C)[C@H]3CC[C@]12C [PROGESTERONE] here?
Answer: -4.55

Question: CNC(=C[N+](=O)[O-])NCCSCc1ccc(CN(C)C)o1 [RANITIDINE] was tested. Which logPapp did it give?
Answer: -6.2

Question: What about the permeability of the same compound?
Answer: permeable

Question: How did the logPapp turn out when O=C(O)c1cc(/N=N/c2ccc(S(=O)(=O)Nc3ccccn3)cc2)ccc1O [SULFASALAZINE] was run?
Answer: -6.61

Question: Which logPapp does the source give for C[C@H](CCC(=O)NCCS(=O)(=O)O)[C@H]1CC[C@H]2[C@@H]3[C@H](O)C[C@@H]4C[C@H](O)CC[C@]4(C)[C@H]3C[C@H](O)[C@]12C [TAUROCHOLIC ACID] here?
Answer: -4.46

Question: For Cn1c(=O)c2[nH]cnc2n(C)c1=O.O [THEOPHYLLINE], which logPapp is on record?
Answer: -4.4

Question: What about the permeability of the same compound?
Answer: permeable

Question: For CC(C(=O)O)c1ccc(C(=O)c2ccccc2)s1 (centres undefined) [TIAPROFENIC ACID], which logPapp is on record?
Answer: -4.41

Question: CC(C)(C)NC[C@H](O)COc1nsnc1N1CCOCC1 [TIMOLOL] was tested. Which logPapp did it give?
Answer: -4.43

Question: CNC(=NCCSCc1csc(N=C(N)N)n1)NC#N [TIOTIDINE] was tested. Which logPapp did it give?
Answer: -5.66

Question: N[C@@H]1[C@H]2CN(c3nc4c(cc3F)c(=O)c(C(=O)O)cn4-c3ccc(F)cc3F)C[C@@H]12 [TROVAFLOXACIN] was tested. Which logPapp did it give?
Answer: -4.52

system: Caco-2; conditions: human, Caco-2, 2 h; remark: another data set of the same source

Question: How did the logPapp turn out when CCOC(=O)[C@H](CCc1ccccc1)N[C@@H](C)C(=O)N1CCC[C@H]1C(=O)O was run?
Answer: -6.1

Question: With CC[C@H](C)C(=O)O[C@H]1C[C@H](O)C=C2C=C[C@H](C)[C@H](CC[C@@H](O)C[C@@H](O)CC(=O)O)[C@H]21 [PRAVASTATIN] as the compound, how does the logPapp read?
Answer: -6.56

Question: How did the logPapp turn out when CC(C)[C@H](N)C(=O)OCCOCn1cnc2c(=O)[nH]c(N)nc21 [VALACYCLOVIR] was run?
Answer: -6.52

system: Caco-2; conditions: human

Question: For CCOC(=O)[C@H](CCc1ccccc1)N[C@@H](C)C(=O)N1CCC[C@H]1C(=O)O, which logPapp is on record?
Answer: -5.7

Question: Which logPapp does the source give for CC[C@H](C)C(=O)O[C@H]1C[C@H](O)C=C2C=C[C@H](C)[C@H](CC[C@@H](O)C[C@@H](O)CC(=O)O)[C@H]21 [PRAVASTATIN] here?
Answer: -5.64

Question: With CC(C)[C@H](N)C(=O)OCCOCn1cnc2c(=O)[nH]c(N)nc21 [VALACYCLOVIR] as the compound, how does the logPapp read?
Answer: -6.3
